From PubChem BioAssay (NCI)
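How tested: cells in 96-well plates exposed to compound for 48 hours at five concentrations. GI50 is the concentration that inhibits growth by half. TGI marks complete inhibition of growth.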

Columns and labels:
Assay in all cases: NCI tumour cell line growth inhibition, 48 h
SNB-75 CNS = test system: SNB-75 CNS
HOP-62 NSCLC = test system: HOP-62 NSCLC
EKVX NSCLC = test system: EKVX NSCLC
SK-MEL-28 melanoma = test system: SK-MEL-28 melanoma
KM12 colon = test system: KM12 colon
OVCAR-5 ovarian = test system: OVCAR-5 ovarian
HOP-18 NSCLC = test system: HOP-18 NSCLC
OVCAR-8 ovarian = test system: OVCAR-8 ovarian
HCT-116 colon = test system: HCT-116 colon
DLD-1 colon = test system: DLD-1 colon
RPMI-8226 leukemia = test system: RPMI-8226 leukemia
HOP-92 NSCLC = test system: HOP-92 NSCLC

Row | Compound | TGI (SNB-75 CNS) [µM] | TGI (HOP-62 NSCLC) [µM] | TGI (EKVX NSCLC) [µM] | TGI (SK-MEL-28 melanoma) [µM] | TGI (KM12 colon) [µM] | TGI (OVCAR-5 ovarian) [µM] | TGI (HOP-18 NSCLC) [µM] | TGI (OVCAR-8 ovarian) [µM] | TGI (HCT-116 colon) [µM] | TGI (DLD-1 colon) [µM] | TGI (RPMI-8226 leukemia) [µM] | TGI (HOP-92 NSCLC) [µM] | GI50 (SNB-75 CNS) [µM] | GI50 (EKVX NSCLC) [µM] | GI50 (SK-MEL-28 melanoma) [µM] | GI50 (KM12 colon) [µM] | GI50 (OVCAR-5 ovarian) [µM] | GI50 (HOP-18 NSCLC) [µM] | GI50 (OVCAR-8 ovarian) [µM] | GI50 (DLD-1 colon) [µM]
1 | Oc1c(Br)cc2c(c1Br)-c1c(c(O)c3c4c1=NCCC=4C=N3)NCC2 | 34.5 | > 66.3 | 46.1 | 32.5 | 27.2 | 40.2 | 35.6 | 28.5 | 28.8 | 25 | 29.8 | 35.4 | – | – | – | – | – | – | – | –
2 | Brc1ccc2[nH]c3c(C4=NCCC4)nccc3c2c1 | > 82 | > 42.2 | 57.3 | > 100 | > 100 | > 29.7 | > 85.8 | > 100 | > 23.2 | > 43.4 | > 36 | > 74.2 | – | – | – | – | – | – | – | –
3 | N#C[S-].[La+3].c1ccc(-c2ccccn2)nc1.c1ccc(-c2ccccn2)nc1.c1ccc(-c2ccccn2)nc1 | > 100 | – | > 100 | > 100 | > 100 | 55.1 | > 100 | > 100 | – | > 100 | – | – | 25.9 | 22 | 30.9 | 51 | 15 | 27.1 | 25.9 | 17.2
